According to patent US9399649B2, “Compounds for treating spinal muscular atrophy” (PTC Therapeutics Inc., priority 2012, dated 2016):

Assays:
[1] = tested on: full length and Δ7 SMN2 mRNA; test: Endogenous SMN2 mRNA RT-qPCR splicing assay in cultured cells; format: cell-based, human; settings: Type 1 SMA patient fibroblasts (GM03813), increasing concentrations, 24 hr, FIG. 4
Protocol: The reverse transcription-quantitative PCR-based (RT-qPCR) assay is used to quantify the levels of the full length and Δ7 SMN2 mRNA in primary cells and cell lines containing the SMN2 gene treated with a test compound.
GM03813 SMA patient cells (5,000 cells/well) are seeded in 200 μL, of cell culture medium (DMEM plus 10% FBS) in 96-well flat-bottom plates and the plate is immediately swirled to ensure proper dispersal of cells, forming an even monolayer of cells. Cells are allowed to attach for at least 4-6 hrs. Test compounds are serially diluted 3.16-fold in 100% DMSO to generate a 7-point concentration curve. A solution of test compound (1 μL, 200× in DMSO) is added to each test well and 1 μL, DMSO is added to each control well. The plate is incubated for 24 hrs in a cell culture incubator (37° C., 5% CO2, 100% relative humidity). The cells are then lysed in Cells-To-Ct lysis buffer and the lysate is stored at 80° C.
SMN2-specific spliced products and GAPDH mRNA are identified using the following primers and probes in Table 5. Primer SMN FL Forward B (SEQ ID NO. 7) hybridizes to a nucleotide sequence in exon 7 (nucleotide 32 to nucleotide 54) and exon 8 (nucleotide 1 to nucleotide 4), primer SMN Δ7 Forward B (SEQ ID NO. 8) hybridizes to a nucleotide sequence in exon 6 (nucleotide 87 to nucleotide 111) and exon 8 (nucleotide 1 to nucleotide 3), primer SMN Reverse B (SEQ ID NO. 9) hybridizes to a nucleotide sequence in exon 8 (nucleotide 39 to nucleotide 62), probe SMN Probe B (SEQ ID NO. 10) hybridizes to a nucleotide sequence in exon 8 (nucleotide 7 to nucleotide 36). These primers and probe hybridize to nucleotide sequences common to human SMN1 and SMN2 mRNA. Since the SMA patient cells used in Example 3 contain only the SMN2 gene, RT-qPCR can quantify only SMN2 full-length and Δ7 mRNA.
The SMN forward and reverse primers are used at final concentrations of 0.4 μM. The SMN probe is used at a final concentration of 0.15 μM. GAPDH primers are used at final concentrations of 0.1 μM and the probe at 0.075 μM. The One-Step RT-PCR kit was used as the Real-Time PCR Mix. […]
The increase of SMN2 FL and decrease in SMN2 Δ7 mRNA relative to those in cells treated with vehicle control are determined from real-time PCR data using a modified ΔΔCt method (as described in Livak and Schmittgen, Methods, 2001, 25:402-8). The amplification efficiency (E) is calculated from the slope of the amplification curve for SMN2 FL, SMN2 Δ7, and GAPDH individually. The abundances of SMN2 FL, SMN2 Δ7, and GAPDH are then calculated as (1+E)^−Ct, where Ct is the threshold value for each amplicon. […]

Smn protein = Smn protein assay in human motor neurons; format: cell-based; settings: human motor neurons derived from SMA iPS cells, 72 hours, increasing concentrations, FIG. 10
Protocol: Smn immunofluorescent confocal microscopy is used to quantify the level of Smn protein in human motor neurons treated with test compounds.
Human motor neurons derived from SMA iPS cells (Ebert et al., Nature, 2009, […]; and, Rubin et al., BMC Biology, 2011, 9:42) are treated with test compound at various concentrations for 72 hours. The level of Smn protein in the cell nucleus is quantified using Smn immunostaining and confocal fluorescence microscopy essentially as described in Makhortova et al., Nature Chemical Biology, 2011, 7:544. The level of Smn protein in compound-treated samples is normalized to that in vehicle-treated samples and plotted as a function of the compound concentration.

[2] = tested on: SMA Δ7 homozygous knockout mice; test: Survival of neonatal Δ7 SMA mice; format: in vivo; settings: IP QD PND 3 to PND 23, then orally BID from PND 24 until study end, FIG. 15
Protocol: The change in the number of surviving mice over time is used to determine whether treatment with a test compound improves survival.
SMA Δ7 homozygous knockout mice are dosed intraperitoneally (IP) with test compound or vehicle (100% DMSO) QD from PND 3 until the dose regimen is switched to an oral dose BID in 0.5% hydroxypropylmethyl cellulose (HPMC) with 0.1% Tween-80 at a dose 3.16-fold higher than the dose used for IP and later switched to an oral dose QD in 0.5% hydroxypropylmethyl cellulose (HPMC) with 0.1% Tween-80 at a dose 6.32-fold higher than the dose used for IP. The number of surviving mice in each group is recorded every day and plotted as a percent of total number of mice. Tissues of SMA Δ7 and age-matched heterozygous mice are collected for the measurement of Smn protein levels and processed as detailed in Example 10. The total protein normalized Smn protein levels measured in the tissues are plotted as a percent of those in the age-matched heterozygous mice tissues, with the Smn level in heterozygous mice set to 100 percent. The level of Smn protein in the test compound treated mice tissue relative to that in heterozygous mice tissue is indicated as a percent value above each bar in the graph.

| Compound | SMN2 FL mRNA relative to vehicle [1] | SMN2 Δ7 mRNA relative to vehicle [1] | Smn protein in the nucleus (Smn protein) | survival [2] |
| --- | --- | --- | --- | --- |
| Cc1cn2cc(-c3cc4ccc(N5CCN(C)CC5)cc4c(=O)o3)nc2c(C)n1 [Cpd 65, 3-(6,8-dimethylimidazo[1,2-a]pyrazin-2-yl)-7-(4-methylpiperazin-1-yl)-1H-isochromen-1-one] | progressively more SMN2 FL mRNA | less SMN2 Δ7 mRNA | progressively more Smn protein in the nucleus | improved compared to vehicle treated mice |
| Cc1cn2cc(-c3cc4ccc(N5CCN6CCC[C@H]6C5)cc4c(=O)o3)nc2c(C)n1 [Cpd 69, 3-(6,8-dimethylimidazo[1,2-a]pyrazin-2-yl)-7-[(8aS)-hexahydropyrrolo[1,2-a]pyrazin-2(1H)-yl]-1H-isochromen-1-one] | progressively more SMN2 FL mRNA | less SMN2 Δ7 mRNA | progressively more Smn protein in the nucleus | improved compared to vehicle treated mice |
